The source of these data is ChEMBL document CHEMBL5653631, “A Potent and Selective ULK1 Inhibitor Suppresses Autophagy and Sensitizes Cancer Cells to Nutrient Stress” (iScience, 2018).

Test [1] concerns the target Mitogen-activated protein kinase 9 (Homo sapiens) (UniProt P45984). Kind of test: Inhibition of human recombinant JNK2 at 40 nM related to control ULK1.
Test [2] concerns the target Insulin-like growth factor 1 receptor (Homo sapiens) (UniProt P08069). Kind of test: Inhibition of human recombinant IGF1R at 40 nM in presence of ATP by radiometric assay relative to control.
Test [3] deals with Cyclin-dependent kinase 7 (Homo sapiens) (UniProt P50613). Kind of test: Inhibition of human recombinant CDK7 at 40 nM in presence of ATP by radiometric assay relative to control.
Cyclin-dependent kinase 7 (Homo sapiens), sequence (P50613 whole entry): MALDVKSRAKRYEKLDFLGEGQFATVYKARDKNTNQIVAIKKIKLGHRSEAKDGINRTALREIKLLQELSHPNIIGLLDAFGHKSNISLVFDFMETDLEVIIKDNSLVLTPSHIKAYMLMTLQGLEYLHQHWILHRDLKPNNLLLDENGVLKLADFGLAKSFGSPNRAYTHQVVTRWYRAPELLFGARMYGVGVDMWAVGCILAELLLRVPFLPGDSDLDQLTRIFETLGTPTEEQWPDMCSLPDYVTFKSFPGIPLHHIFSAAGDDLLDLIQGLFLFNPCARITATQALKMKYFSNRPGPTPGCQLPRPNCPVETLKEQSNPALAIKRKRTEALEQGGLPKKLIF
Test [4] concerns the target MAP kinase-interacting serine/threonine-protein kinase 2 (Homo sapiens, UniProt Q9HBH9). Briefly: Inhibition of human recombinant MNK2.
The target in test [5] is T1, Protein kinase C zeta type (Homo sapiens) (UniProt Q05513).
T1 sequence (whole entry): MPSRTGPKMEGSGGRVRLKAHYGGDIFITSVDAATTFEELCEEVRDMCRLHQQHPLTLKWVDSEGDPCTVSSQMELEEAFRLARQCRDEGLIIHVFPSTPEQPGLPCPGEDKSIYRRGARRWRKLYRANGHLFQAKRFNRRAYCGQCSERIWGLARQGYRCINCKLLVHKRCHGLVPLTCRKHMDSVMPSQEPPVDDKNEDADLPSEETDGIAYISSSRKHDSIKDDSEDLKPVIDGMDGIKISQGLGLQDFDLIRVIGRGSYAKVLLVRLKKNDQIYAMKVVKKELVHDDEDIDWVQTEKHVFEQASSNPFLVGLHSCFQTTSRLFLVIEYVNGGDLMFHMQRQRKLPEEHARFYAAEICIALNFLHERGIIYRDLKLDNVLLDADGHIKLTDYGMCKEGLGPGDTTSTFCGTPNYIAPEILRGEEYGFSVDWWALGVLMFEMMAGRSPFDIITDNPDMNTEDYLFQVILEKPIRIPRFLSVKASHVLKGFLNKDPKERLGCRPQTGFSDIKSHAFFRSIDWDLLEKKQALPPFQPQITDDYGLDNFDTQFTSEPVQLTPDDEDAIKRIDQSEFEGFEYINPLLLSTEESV
Briefly: Inhibition of human recombinant PKCz at 500 nM in presence of ATP by radiometric assay relative to control.

The target of test [6] is Eukaryotic translation initiation factor 2-alpha kinase 1 (Homo sapiens) (UniProt Q9BQI3). Kind of test: Inhibition of human recombinant HRI at 500 nM in presence of ATP by radiometric assay relative to control.
Eukaryotic translation initiation factor 2-alpha kinase 1 (Homo sapiens), sequence (Q9BQI3 whole entry): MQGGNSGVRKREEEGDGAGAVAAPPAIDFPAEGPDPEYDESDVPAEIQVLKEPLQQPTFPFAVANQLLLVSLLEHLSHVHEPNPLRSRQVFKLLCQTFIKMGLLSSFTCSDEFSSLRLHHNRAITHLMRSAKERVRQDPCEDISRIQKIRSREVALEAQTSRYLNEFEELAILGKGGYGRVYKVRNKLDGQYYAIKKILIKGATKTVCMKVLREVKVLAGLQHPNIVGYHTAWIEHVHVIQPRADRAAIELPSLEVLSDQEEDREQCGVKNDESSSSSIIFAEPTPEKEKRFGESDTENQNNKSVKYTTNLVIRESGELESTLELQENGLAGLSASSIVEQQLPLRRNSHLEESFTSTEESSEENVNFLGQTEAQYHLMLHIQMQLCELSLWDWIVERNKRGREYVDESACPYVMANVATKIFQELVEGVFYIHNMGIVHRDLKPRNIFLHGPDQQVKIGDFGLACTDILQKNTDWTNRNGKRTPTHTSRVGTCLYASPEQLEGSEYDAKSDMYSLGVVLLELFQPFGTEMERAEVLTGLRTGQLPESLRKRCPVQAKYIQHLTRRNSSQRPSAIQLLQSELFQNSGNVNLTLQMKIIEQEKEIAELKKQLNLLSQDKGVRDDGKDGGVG
In test [7] the target is Tyrosine-protein kinase ABL2 (Homo sapiens) (UniProt P42684). Briefly: Inhibition of human recombinant ABL2 at 500 nM related to control ULK1.
Tyrosine-protein kinase ABL2 (Homo sapiens), sequence (P42684 whole entry): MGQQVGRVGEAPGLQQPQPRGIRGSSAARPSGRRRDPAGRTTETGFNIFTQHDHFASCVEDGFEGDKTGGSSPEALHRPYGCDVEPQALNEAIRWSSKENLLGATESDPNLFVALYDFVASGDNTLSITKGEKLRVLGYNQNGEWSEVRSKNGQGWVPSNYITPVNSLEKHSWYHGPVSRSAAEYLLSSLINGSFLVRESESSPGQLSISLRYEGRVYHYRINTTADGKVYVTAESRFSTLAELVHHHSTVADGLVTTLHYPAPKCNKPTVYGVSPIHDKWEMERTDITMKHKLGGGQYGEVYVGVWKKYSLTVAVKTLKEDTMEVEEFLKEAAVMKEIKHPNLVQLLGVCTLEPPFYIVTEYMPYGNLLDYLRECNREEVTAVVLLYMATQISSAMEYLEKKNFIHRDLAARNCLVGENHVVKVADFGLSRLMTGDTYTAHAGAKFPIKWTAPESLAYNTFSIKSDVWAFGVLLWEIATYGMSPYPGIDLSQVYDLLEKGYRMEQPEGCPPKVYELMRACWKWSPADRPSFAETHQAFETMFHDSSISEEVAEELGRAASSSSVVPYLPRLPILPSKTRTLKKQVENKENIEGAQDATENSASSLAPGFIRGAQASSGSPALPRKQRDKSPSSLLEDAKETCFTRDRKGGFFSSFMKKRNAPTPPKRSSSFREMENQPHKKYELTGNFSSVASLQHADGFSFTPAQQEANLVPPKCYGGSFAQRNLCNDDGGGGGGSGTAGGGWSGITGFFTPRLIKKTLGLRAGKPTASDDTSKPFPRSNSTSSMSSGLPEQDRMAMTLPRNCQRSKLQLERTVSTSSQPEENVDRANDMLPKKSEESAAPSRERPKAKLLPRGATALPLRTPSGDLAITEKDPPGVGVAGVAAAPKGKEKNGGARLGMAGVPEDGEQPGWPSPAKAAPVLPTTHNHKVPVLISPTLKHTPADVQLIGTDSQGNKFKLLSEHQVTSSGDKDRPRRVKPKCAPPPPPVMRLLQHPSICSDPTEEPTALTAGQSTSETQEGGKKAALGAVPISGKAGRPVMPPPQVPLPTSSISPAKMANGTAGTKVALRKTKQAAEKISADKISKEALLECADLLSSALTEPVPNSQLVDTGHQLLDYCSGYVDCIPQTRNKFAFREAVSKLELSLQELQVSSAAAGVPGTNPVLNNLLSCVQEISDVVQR
Test [8] concerns the target T2, Serine/threonine-protein kinase TAO1 (Homo sapiens) (UniProt Q7L7X3).
T2 sequence (whole entry): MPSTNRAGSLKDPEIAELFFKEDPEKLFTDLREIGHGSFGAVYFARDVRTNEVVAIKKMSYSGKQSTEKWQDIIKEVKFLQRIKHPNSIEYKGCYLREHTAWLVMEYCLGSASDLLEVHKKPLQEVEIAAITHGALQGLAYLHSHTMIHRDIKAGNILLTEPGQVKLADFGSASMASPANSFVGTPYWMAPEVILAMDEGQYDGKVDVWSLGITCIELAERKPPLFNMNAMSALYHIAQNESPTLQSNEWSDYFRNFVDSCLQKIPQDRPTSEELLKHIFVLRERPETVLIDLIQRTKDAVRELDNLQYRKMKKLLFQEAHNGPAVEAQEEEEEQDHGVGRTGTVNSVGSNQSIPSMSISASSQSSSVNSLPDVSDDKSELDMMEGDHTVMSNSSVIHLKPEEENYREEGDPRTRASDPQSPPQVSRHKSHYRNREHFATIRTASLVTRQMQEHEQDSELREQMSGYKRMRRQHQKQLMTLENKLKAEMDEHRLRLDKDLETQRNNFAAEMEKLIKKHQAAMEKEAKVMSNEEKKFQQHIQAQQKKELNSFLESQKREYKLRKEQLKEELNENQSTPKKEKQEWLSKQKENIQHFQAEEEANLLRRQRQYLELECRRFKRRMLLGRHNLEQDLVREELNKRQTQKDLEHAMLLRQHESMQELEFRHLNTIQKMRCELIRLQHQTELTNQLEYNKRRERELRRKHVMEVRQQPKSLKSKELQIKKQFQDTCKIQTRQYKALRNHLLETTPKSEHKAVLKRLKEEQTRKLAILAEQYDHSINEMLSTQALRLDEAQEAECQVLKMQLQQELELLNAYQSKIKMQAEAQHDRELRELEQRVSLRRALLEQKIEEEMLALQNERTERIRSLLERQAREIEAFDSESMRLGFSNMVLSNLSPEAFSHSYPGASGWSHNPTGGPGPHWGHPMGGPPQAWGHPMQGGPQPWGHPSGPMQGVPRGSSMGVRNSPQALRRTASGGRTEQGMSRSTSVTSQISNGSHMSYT
Briefly: Inhibition of human recombinant TAO1 at 500 nM in presence of ATP by radiometric assay relative to control.

The target of test [9] is Fibroblast growth factor receptor 4 (Homo sapiens) (UniProt P22455). Briefly: Inhibition of human recombinant FGFR4 at 500 nM in presence of ATP by radiometric assay relative to control.
Fibroblast growth factor receptor 4 (Homo sapiens), sequence (P22455 22-802 limits assumed): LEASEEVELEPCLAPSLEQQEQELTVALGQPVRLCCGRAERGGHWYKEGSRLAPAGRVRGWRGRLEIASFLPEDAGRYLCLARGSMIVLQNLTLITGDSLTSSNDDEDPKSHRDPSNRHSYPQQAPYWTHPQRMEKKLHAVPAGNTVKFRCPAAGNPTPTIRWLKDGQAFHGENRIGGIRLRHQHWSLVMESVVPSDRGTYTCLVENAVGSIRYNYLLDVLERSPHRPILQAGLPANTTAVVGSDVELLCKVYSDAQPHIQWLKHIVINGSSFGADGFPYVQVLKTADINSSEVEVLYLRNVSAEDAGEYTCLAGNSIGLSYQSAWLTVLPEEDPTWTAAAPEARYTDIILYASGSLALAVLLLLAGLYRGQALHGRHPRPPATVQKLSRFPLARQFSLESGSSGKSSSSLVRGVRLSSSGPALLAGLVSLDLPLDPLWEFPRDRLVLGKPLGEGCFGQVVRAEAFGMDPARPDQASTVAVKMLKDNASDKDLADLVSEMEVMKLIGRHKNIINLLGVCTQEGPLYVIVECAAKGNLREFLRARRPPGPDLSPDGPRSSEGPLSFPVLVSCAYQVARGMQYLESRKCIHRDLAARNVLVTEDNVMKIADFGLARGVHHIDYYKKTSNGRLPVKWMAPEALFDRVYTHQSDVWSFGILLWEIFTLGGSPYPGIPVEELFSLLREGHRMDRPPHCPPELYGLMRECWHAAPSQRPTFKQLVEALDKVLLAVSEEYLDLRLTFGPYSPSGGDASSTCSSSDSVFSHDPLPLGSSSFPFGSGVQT
The target of test [10] is Tyrosine-protein kinase BTK (Homo sapiens) (UniProt Q06187). Briefly: Inhibition of human recombinant BTK at 500 nM in presence of ATP by radiometric assay relative to control.
Tyrosine-protein kinase BTK (Homo sapiens), sequence (Q06187 whole entry): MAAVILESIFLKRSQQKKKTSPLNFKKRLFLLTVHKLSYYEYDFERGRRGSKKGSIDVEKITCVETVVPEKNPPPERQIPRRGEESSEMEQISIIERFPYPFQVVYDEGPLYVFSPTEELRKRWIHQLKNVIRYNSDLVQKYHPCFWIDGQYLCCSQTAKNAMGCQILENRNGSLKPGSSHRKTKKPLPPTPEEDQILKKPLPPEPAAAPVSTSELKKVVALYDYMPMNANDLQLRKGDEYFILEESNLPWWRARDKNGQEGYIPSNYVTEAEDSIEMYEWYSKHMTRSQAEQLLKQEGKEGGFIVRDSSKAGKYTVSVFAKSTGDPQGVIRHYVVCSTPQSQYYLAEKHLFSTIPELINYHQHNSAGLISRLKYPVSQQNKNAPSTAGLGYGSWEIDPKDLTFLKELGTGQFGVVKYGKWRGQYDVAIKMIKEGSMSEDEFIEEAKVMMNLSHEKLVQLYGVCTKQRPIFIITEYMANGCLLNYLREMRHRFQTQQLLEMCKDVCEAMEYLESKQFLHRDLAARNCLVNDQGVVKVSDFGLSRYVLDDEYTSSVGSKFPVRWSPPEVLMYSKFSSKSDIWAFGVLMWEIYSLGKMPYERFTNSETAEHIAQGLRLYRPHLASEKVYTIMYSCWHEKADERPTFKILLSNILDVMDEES
Test [11] deals with Serine/threonine-protein kinase pim-1 (Homo sapiens) (UniProt P11309). Briefly: Inhibition of human recombinant PIM1 at 15 nM in presence of ATP by radiometric assay relative to control.
Serine/threonine-protein kinase pim-1 (Homo sapiens), sequence (P11309 whole entry, looked up): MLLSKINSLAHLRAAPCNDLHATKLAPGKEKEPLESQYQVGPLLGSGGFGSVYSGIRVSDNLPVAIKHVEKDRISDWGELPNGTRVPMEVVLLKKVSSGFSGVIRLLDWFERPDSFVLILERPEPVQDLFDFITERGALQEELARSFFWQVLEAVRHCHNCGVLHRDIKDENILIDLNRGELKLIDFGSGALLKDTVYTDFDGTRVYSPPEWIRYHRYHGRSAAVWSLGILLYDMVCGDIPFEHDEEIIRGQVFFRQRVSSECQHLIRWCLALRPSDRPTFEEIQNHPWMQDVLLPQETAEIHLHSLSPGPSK

Mitogen-activated protein kinase 9 (Homo sapiens), sequence (P45984 whole entry, looked up): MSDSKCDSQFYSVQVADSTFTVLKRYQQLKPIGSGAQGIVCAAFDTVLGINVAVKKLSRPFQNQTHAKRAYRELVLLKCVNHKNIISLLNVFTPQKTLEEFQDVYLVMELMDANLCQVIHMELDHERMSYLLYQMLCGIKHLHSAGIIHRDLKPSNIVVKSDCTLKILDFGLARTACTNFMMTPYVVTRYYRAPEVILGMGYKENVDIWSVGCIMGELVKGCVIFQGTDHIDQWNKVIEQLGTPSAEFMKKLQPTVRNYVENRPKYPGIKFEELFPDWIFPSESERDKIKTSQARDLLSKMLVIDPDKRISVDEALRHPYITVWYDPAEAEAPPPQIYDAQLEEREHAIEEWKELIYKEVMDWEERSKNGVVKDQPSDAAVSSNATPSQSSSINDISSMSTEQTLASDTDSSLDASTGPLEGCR
MAP kinase-interacting serine/threonine-protein kinase 2, sequence (Q9HBH9 whole entry): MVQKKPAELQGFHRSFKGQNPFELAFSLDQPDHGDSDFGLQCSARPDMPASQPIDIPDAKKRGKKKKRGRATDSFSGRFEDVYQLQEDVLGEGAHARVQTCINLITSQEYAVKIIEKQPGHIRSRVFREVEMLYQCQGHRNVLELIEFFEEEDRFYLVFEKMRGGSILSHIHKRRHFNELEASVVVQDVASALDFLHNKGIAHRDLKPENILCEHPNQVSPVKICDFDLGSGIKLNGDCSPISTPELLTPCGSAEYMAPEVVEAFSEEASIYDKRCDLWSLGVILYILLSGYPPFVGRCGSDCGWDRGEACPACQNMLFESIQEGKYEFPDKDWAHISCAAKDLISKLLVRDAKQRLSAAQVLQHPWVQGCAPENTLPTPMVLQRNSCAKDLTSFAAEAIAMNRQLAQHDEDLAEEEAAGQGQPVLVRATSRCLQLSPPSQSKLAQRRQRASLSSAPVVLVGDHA

In general, inhibition refers to how much of the control response was suppressed. The term IC50 denotes the concentration at which inhibition is half-maximal. Regarding `O=C(N[C@@H](C1CC1)C(F)(F)F)c1cc(-c2cnn3cc(-c4ccc(F)cc4)cnc23)cs1`, in test [1], the fold change (FC) was 0.01. Besides, the inhibition in test [2] stood at 0%; in [3], 23%. Moreover, the IC50 in test [4] came to 22 nM.

Take `CNC(=O)c1ccccc1Oc1nc(Nc2cc(OC)c(OC)c(OC)c2)ncc1Br`: the inhibition came out at 0% in test [5]; 0% in test [6]; 6% in [8]; 10% in test [9]; 0% in test [10]. The fold change (FC) in test [7] turned out to be 0.28.

In the case of `CC(C)[C@H](NC(=O)c1cc(-c2cnn3cc(-c4ccc(OCCN5CCCCC5)cc4)cnc23)cs1)C(F)(F)F`, the inhibition in [11] was 14%.
